Measurements published in PubChem BioAssay AID328 (DTP/NCI, 2004).
“And” between values parts separate entries of the source, which are not always exact repeats. Equal values may be shown once. Inconclusive results and toxic doses are left out. How the source made its calls: active means survival T/C of 150% or more; inactive means T/C below 125% in these data. Non-standard residues stand in square brackets, D forms with d. Residues, ends and D or L forms follow the SMILES beside them. ξ: configuration not given here. *: point of attachment. Cbz = O=C(OCc1ccccc1)*; ξK = NCCCCC(N)C(=O)O

System: BDF1 mice, P388 leukemia ip, median survival T/C
Assay: NCI In Vivo Anticancer Drug Screen. Data for tumor model P388 Leukemia (intraperitoneal) in B6D2F1 (BDF1) mice
Settings: endpoint: median survival time, higher = longer survival
Outline: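 Transplantable tumour in mice; compound vs vehicle dosing; survival scored; ratio of treated to control reported.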

[1] = dose: 100.0 mg/kg/injection, schedule: Q01DX009 (ip), vehicle: saline with Tween-80
[2] = dose: 100.0 mg/kg/injection, schedule: Q04DX003 (ip), vehicle: saline with Tween-80
[3] = dose: 200.0 mg/kg/injection, schedule: Q04DX003 (ip), vehicle: saline with Tween-80
[4] = dose: 400.0 mg/kg/injection, schedule: Q01DX009 (ip), vehicle: saline with Tween-80
[5] = dose: 400.0 mg/kg/injection, schedule: Q04DX003 (ip), vehicle: saline with Tween-80
[6] = dose: 200.0 mg/kg/injection, schedule: Q01DX009 (ip), vehicle: saline with Tween-80
[7] = dose: 50.0 mg/kg/injection, schedule: Q01DX009 (ip), vehicle: saline with Tween-80

Measured: T/C

Cc1n[nH]c(C)c1Br
inactive: dose: 75.0 mg/kg/injection, schedule: Q01DX009 (ip), vehicle: saline with Tween-80 95 % of control | dose: 150.0 mg/kg/injection, schedule: Q01DX009 (ip), vehicle: saline with Tween-80 98 % of control | dose: 300.0 mg/kg/injection, schedule: Q01DX009 (ip), vehicle: saline with Tween-80 95 % of control

COc1ccc(C(CCl)(CCl)c2ccc(OC)c(C)c2)cc1C
inactive: [1] 104 % of control | [2] 91 % of control | [3] 87 % of control | [4] 100 % of control | [5] 100 % of control

c1ccc2cc3nc4cc5ccccc5cc4nc3cc2c1
inactive: [1] 99 % of control | [6] 100 % of control | [4] 100 % of control

CC(=O)NC(CCCCNC(=O)OCc1ccccc1)C(=O)NCC(=O)O (centres undefined) (Ac-[ξK](Cbz)-Gly-OH)
inactive: dose: 50.0 mg/kg/injection, schedule: Q01DX005 (ip), vehicle: saline with Tween-80 93 % of control | dose: 100.0 mg/kg/injection, schedule: Q01DX005 (ip), vehicle: saline with Tween-80 105 % of control | dose: 200.0 mg/kg/injection, schedule: Q01DX005 (ip), vehicle: saline with Tween-80 100 % of control

C=C(C)C(=O)NCCC(=O)Oc1ccc([N+](=O)[O-])cc1
inactive: [7] 95 % of control | [1] 87 % of control | [6] 86 % of control

COc1ccc(Nc2cccc(Cl)c2)c(C(=O)O)c1
inactive: dose: 20.0 mg/kg/injection, schedule: Q01DX001 (ip), vehicle: Klucel (hydroxypropylcellulose) (HPC) 122 % of control | dose: 40.0 mg/kg/injection, schedule: Q01DX001 (ip), vehicle: Klucel (hydroxypropylcellulose) (HPC) 100 % of control | dose: 75.0 mg/kg/injection, schedule: Q01DX001 (ip), vehicle: Klucel (hydroxypropylcellulose) (HPC) 104 % of control | dose: 150.0 mg/kg/injection, schedule: Q01DX001 (ip), vehicle: Klucel (hydroxypropylcellulose) (HPC) 100 % of control

CCC(c1ccc(OC(=O)Cc2ccc(N(CCCl)CCCl)cc2)cc1)C(CC)c1ccc(OC(=O)Cc2ccc(N(CCCl)CCCl)cc2)cc1 (centres undefined)
inactive: dose: 25.0 mg/kg/injection, schedule: Q01DX009 (ip), vehicle: saline with Tween-80 96 % of control | [7] 104 % of control | dose: 64.0 mg/kg/injection, schedule: Q01DX009 (ip), vehicle: saline with Tween-80 92 % of control and 100 % of control | [1] 104 % of control | dose: 128.0 mg/kg/injection, schedule: Q01DX009 (ip), vehicle: saline with Tween-80 92 % of control and 98 % of control | [6] 98 % of control | dose: 256.0 mg/kg/injection, schedule: Q01DX009 (ip), vehicle: saline with Tween-80 93 % of control and 99 % of control | [4] 107 % of control | dose: 512.0 mg/kg/injection, schedule: Q01DX009 (ip), vehicle: saline with Tween-80 98 % of control and 104 % of control

CC1(C)OC(COS(C)(=O)=O)C(COS(C)(=O)=O)O1 (centres undefined)
inactive: dose: 100.0 mg/kg/injection, schedule: Q04DX002 (ip), vehicle: saline with Tween-80 101 % of control | dose: 200.0 mg/kg/injection, schedule: Q04DX002 (ip), vehicle: saline with Tween-80 104 % of control | dose: 400.0 mg/kg/injection, schedule: Q04DX002 (ip), vehicle: saline with Tween-80 104 % of control

CCSC(=O)N1c2ccc(C)cc2C=CC1C#N (centres undefined)
inactive: dose: 62.5 mg/kg/injection, schedule: Q01DX001 (ip), vehicle: saline with Tween-80 113 % of control | dose: 125.0 mg/kg/injection, schedule: Q01DX001 (ip), vehicle: saline with Tween-80 104 % of control | dose: 250.0 mg/kg/injection, schedule: Q01DX001 (ip), vehicle: saline with Tween-80 122 % of control

CSc1ccccc1C(C)(C)O
inactive: dose: 50.0 mg/kg/injection, schedule: Q01DX009 (ip), vehicle: other 100 % of control | dose: 100.0 mg/kg/injection, schedule: Q01DX009 (ip), vehicle: other 104 % of control | dose: 200.0 mg/kg/injection, schedule: Q01DX009 (ip), vehicle: other 113 % of control

N#CN=CN1CCC(O)(c2ccccc2)CC1
inactive: [7] 88 % of control | [1] 88 % of control | [6] 94 % of control

C#CC(C)(C)NC(=O)NC12CC3CC(CC(C3)C1)C2
inactive: dose: 200.0 mg/kg/injection, schedule: Q01DX001 (ip), vehicle: saline with Tween-80 88 % of control | dose: 400.0 mg/kg/injection, schedule: Q01DX001 (ip), vehicle: saline with Tween-80 95 % of control

C=CCOCCN1CCN(CCCN2c3ccccc3Sc3ccc(C(F)(F)F)cc32)CC1
inactive: dose: 5.0 mg/kg/injection, schedule: Q04DX003 (ip), vehicle: saline 104 % of control | dose: 10.0 mg/kg/injection, schedule: Q04DX003 (ip), vehicle: saline 121 % of control

Cc1ccc(CNc2ccc(I)cc2)cc1
inactive: [2] 105 % of control | [3] 95 % of control | [5] 105 % of control

[CH3][Sn]([CH3])([Cl])[S]CCN
inactive: dose: 6.25 mg/kg/injection, schedule: Q01DX009 (ip), vehicle: saline 123 % of control

Nc1nc2c(c(=O)[nH]1)NC(CCNc1ccc(C(=O)O)cc1)CN2 (centres undefined)
inactive: [2] 86 % of control

CC1=C2C(=O)c3ccccc3C2=C(C)S(=O)(=O)O1
inactive: dose: 50.0 mg/kg/injection, schedule: Q01DX009 (ip), vehicle: carboxymethylcellulose (CMC) 119 % of control | dose: 100.0 mg/kg/injection, schedule: Q01DX009 (ip), vehicle: carboxymethylcellulose (CMC) 90 % of control | [2] 122 % of control

CC(O)C(N)C(=O)NCCc1nc(-c2nc(C(=O)NCCCBr)cs2)cs1 (centres undefined)
inactive: dose: 50.0 mg/kg/injection, schedule: Q01DX009 (ip), vehicle: saline 106 % of control | dose: 100.0 mg/kg/injection, schedule: Q01DX009 (ip), vehicle: saline 94 % of control | dose: 200.0 mg/kg/injection, schedule: Q01DX009 (ip), vehicle: saline 103 % of control

CCOC(=O)c1cc2sccc2[nH]1
inactive: [1] 103 % of control | [2] 104 % of control | [6] 100 % of control | [3] 109 % of control | [4] 115 % of control | [5] 113 % of control

[NH-]C(CO)C(=O)O.[NH-]C(CO)C(=O)O.[Pd+2] (centres undefined)
inactive: dose: 12.5 mg/kg/injection, schedule: Q01DX009 (ip), vehicle: water 106 % of control

CC(C)COC(=O)c1ccccc1O
inactive: dose: 75.0 mg/kg/injection, schedule: Q01DX009 (ip), vehicle: Klucel (hydroxypropylcellulose) (HPC) 109 % of control | dose: 100.0 mg/kg/injection, schedule: Q04DX003 (ip), vehicle: Klucel (hydroxypropylcellulose) (HPC) 111 % of control | dose: 150.0 mg/kg/injection, schedule: Q01DX009 (ip), vehicle: Klucel (hydroxypropylcellulose) (HPC) 90 % of control | dose: 200.0 mg/kg/injection, schedule: Q04DX003 (ip), vehicle: Klucel (hydroxypropylcellulose) (HPC) 92 % of control | dose: 300.0 mg/kg/injection, schedule: Q01DX009 (ip), vehicle: Klucel (hydroxypropylcellulose) (HPC) 109 % of control
